Experimental data: patent USRE49850E1, “N-(pyridin-2-yl)-4-(thiazol-5-yl)pyrimidin-2-amine derivatives as therapeutic compounds” (AUCENTRA THERAPEUTICS PTY LTD, priority 2015, dated 2024)

What was measured:
[1] = system: MDA-MB-453; test: Cell viability assay (MTT, solid tumour cell line) MDA-MB-453; type: cell-based, human; details: Homo sapiens, MDA-MB-453, 72 h; read-out: Anti-proliferative activity GI50 MDA-MB-453
From the text: (§1) Compounds from Example 1 were subjected to a standard MTT (3-(4,5-dimethylthiazol-2-yl)-2,5-diphenyltetrazolium bromide) and resazurin assays on solid tumour cell lines and leukemia cell lines, respectively, as previously reported (Wang S et al., J Med Chem 47:1662-1675, 2004 and Diab S. et al. CheMedChem 9:962-972, 2014).

[2] = target: T1, CDK9T1 (Homo sapiens, UniProt P50750); test: Kinase assay CDK9/T1 (radiometric or ADP Glo); type: biochemical; details: apparent Ki calculated from Km (ATP) and IC50; read-out: CDK inhibition Ki CDK9T1
T1 construct: purchased Eurofins Pharma Discovery or Reaction Biology Corporation (service)
T1 sequence (P50750 whole entry): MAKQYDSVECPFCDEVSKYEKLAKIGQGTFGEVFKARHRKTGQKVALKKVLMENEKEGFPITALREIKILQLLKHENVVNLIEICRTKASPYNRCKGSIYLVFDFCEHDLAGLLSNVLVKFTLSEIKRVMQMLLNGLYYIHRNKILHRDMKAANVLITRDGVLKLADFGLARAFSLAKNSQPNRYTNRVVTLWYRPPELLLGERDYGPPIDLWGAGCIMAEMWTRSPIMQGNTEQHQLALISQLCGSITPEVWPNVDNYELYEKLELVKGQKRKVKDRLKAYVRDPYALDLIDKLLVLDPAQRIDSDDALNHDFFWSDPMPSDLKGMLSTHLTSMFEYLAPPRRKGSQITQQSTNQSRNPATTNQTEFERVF
T1 sequence (O60563 whole entry partner): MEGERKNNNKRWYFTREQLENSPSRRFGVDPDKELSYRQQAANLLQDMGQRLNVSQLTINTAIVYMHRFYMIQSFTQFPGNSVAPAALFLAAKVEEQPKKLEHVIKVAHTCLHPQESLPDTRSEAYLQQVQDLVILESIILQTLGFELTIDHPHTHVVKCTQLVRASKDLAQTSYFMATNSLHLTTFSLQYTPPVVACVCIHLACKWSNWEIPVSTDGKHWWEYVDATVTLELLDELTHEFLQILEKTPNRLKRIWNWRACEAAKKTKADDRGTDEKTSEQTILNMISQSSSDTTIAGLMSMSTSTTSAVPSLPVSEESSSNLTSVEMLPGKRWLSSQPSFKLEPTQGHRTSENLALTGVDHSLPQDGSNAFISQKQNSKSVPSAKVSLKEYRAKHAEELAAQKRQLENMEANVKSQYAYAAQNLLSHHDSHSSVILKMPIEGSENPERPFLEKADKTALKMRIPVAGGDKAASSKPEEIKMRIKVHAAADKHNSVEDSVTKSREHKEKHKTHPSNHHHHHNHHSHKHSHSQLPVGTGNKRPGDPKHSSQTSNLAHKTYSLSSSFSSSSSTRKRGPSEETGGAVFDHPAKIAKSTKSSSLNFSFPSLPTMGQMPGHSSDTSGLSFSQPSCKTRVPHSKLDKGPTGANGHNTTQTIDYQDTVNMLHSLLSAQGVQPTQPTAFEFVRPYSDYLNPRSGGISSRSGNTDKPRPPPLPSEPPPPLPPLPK
In short: (§2)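 Radiometric inhibition data for CDKs came from Eurofins or Reaction Biology profiling services; CDK4/D1 was also run in-house by ADP-Glo in […] pH 7.5, 20 mM MgCl2, 0.4 mM DTT, 0.1 mg/ml BSA with RB-CTF substrate, 40 min at 37 °C after ATP start. Ten-point 1:3 dilutions (10 μM–0.5 nM); four-parameter IC50, Ki from IC50 and ATP Km.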

[3] = target: CDK1B (Homo sapiens, UniProt P06493); test: Kinase assay CDK1B (radiometric profiling service); type: biochemical; details: for Ki: apparent Ki calculated from Km (ATP) and IC50, read-out: CDK inhibition Ki CDK1B
CDK1B, sequence (P06493 whole entry): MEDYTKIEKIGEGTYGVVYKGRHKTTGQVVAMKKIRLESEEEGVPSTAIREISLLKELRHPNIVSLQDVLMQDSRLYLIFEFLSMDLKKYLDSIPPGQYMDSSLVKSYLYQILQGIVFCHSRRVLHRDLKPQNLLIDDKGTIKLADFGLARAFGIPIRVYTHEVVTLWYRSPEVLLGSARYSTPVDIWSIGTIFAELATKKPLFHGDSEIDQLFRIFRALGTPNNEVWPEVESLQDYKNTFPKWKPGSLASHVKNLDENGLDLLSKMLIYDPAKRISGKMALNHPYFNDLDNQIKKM
CDK1B, sequence (P14635 whole entry partner): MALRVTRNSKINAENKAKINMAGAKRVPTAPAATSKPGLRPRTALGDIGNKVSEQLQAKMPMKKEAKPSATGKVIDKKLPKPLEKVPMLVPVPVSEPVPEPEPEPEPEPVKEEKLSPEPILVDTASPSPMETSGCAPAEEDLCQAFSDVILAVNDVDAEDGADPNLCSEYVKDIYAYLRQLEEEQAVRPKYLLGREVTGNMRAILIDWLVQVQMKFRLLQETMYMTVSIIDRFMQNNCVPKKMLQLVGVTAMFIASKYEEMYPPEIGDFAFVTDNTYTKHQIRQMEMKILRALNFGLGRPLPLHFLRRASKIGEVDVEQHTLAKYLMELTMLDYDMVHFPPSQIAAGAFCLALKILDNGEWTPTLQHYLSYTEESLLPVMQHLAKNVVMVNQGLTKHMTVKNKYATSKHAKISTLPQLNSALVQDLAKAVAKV
In short: (§3)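 Luminescent ADP-Glo read-out for CDK4/D1 (radiometric alternative); CDK7/2/1 radiometric via profiler. CDK4/D1: RB-CTF, Tris pH 7.5, MgCl2, DTT, BSA, ATP start, 40 min 37° C. 10-pt 1:3 series, 10 μM–0.5 nM. 4-PL IC50; Ki calc. from Km(ATP).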

[4] = target: T2, CDK6D3 (Homo sapiens, UniProt Q00534); test: Kinase assay CDK6/D3 (radiometric or ADP Glo); type: biochemical; details: apparent Ki calculated from Km (ATP) and IC50; read-out: CDK inhibition Ki CDK6D3
T2 construct: purchased Eurofins Pharma Discovery or Reaction Biology Corporation (service)
T2 sequence (Q00534 whole entry): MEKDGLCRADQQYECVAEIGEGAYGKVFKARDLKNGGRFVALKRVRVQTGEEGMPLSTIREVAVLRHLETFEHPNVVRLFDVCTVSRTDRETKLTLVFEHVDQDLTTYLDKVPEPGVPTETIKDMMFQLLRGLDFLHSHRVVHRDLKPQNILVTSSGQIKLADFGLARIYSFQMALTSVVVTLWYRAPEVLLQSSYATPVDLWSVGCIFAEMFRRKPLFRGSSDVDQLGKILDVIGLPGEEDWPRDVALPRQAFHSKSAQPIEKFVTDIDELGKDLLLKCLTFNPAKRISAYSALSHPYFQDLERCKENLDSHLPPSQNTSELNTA
T2 sequence (P30281 whole entry partner): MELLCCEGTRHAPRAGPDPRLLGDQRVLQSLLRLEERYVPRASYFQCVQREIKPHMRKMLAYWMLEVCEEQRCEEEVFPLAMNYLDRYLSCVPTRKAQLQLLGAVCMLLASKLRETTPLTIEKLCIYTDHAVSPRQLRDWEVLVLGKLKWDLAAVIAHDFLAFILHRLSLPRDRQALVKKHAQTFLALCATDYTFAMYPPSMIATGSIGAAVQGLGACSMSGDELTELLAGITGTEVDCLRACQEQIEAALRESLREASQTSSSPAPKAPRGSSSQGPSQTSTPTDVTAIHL
In short: as §2

[5] = target: CDK 2A (Homo sapiens, UniProt P24941); test: Kinase assay CDK2A (radiometric profiling service); type: biochemical; details: for Ki: apparent Ki calculated from Km (ATP) and IC50, read-out: CDK inhibition Ki CDK 2A
In short: as §3

[6] = target: CDK7H (Homo sapiens, UniProt P50613); test: Kinase assay CDK7H (radiometric profiling service); type: biochemical; details: for Ki: apparent Ki calculated from Km (ATP) and IC50, read-out: CDK inhibition Ki CDK7H
CDK7H, sequence (P50613 whole entry): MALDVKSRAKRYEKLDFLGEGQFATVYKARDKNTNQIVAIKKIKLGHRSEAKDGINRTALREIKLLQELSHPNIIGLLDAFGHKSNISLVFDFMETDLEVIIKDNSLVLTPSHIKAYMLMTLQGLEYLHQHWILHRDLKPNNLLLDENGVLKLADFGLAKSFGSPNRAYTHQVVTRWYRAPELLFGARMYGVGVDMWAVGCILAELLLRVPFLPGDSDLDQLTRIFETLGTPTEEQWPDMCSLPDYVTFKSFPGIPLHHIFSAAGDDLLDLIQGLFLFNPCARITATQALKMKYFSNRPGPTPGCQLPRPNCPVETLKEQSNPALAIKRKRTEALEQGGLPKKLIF
CDK7H, sequence (P51946 whole entry partner): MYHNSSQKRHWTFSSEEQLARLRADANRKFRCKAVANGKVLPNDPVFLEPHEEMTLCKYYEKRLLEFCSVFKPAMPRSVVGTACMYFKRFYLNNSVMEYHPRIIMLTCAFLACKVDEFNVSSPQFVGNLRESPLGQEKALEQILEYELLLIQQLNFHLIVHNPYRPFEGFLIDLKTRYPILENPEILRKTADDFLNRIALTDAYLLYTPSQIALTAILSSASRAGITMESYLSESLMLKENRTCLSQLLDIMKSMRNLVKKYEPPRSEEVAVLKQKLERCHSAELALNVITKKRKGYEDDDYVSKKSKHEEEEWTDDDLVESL
CDK7H, sequence (P51948 whole entry partner): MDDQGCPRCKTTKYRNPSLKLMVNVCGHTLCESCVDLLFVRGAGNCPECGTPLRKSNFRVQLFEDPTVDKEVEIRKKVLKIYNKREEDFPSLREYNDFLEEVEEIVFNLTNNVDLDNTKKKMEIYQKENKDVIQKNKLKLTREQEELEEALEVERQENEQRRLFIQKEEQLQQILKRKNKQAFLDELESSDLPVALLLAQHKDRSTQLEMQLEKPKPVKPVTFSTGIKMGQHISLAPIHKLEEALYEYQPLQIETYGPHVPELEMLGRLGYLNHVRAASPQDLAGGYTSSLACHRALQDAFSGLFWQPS
In short: as §3

[7] = target: T3, CDK4D1 (Homo sapiens, UniProt P11802); test: Kinase assay CDK4/D1 (radiometric or ADP Glo); type: biochemical; details: apparent Ki calculated from Km (ATP) and IC50; read-out: CDK inhibition Ki CDK4D1
T3 construct: purchased Eurofins Pharma Discovery or Reaction Biology Corporation (service)
T3 sequence (P11802 whole entry): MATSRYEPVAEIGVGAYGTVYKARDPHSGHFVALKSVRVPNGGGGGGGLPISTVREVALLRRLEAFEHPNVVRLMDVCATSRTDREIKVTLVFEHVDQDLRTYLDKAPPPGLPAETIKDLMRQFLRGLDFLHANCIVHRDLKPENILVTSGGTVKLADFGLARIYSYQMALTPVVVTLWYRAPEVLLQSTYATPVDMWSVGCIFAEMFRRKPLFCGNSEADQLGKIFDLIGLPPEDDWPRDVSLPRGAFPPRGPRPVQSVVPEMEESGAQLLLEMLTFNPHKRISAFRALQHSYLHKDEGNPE
T3 sequence (P24385 whole entry partner): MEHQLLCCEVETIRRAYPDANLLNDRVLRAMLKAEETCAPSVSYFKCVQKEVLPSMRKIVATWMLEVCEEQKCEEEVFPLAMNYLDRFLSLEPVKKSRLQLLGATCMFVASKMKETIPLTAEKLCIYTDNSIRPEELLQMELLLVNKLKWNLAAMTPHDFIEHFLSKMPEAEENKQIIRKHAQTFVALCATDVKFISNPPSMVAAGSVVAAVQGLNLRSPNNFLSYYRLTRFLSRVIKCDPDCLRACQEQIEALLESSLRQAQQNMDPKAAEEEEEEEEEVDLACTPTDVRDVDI
In short: as §3

[8] = system: MV4-11; test: Cell viability assay (resazurin, leukemia cell line) MV4-11; type: cell-based, human; details: Homo sapiens, MV4-11, 72 h; read-out: Anti-proliferative activity GI50 MV4-11
From the text: as §1

[9] = Pharmacokinetics in mice; type: in vivo, Balb/C mice; details: po, 10 mg/kg in mice
Experimental: (§4) For pharmacokinetic measurements, healthy male adult Balb/C mice (weighing 20-25 g) or Wistar Rat (weighing 250-350 g) were split into weight matched groups of 3 per group. […] Blood samples were collected from animals by jugular vein cannula (rats) or under anaesthesia by cardiac puncture (mice) at time zero and at intervals up to 24 h. Harvested blood was centrifuged at 7000×G for 2 minutes, and the plasma aspirated and frozen at −20° C. until analysis. Quantitative analysis of compound in plasma was carried out using LC-MS/MS methods. Pharmacokinetic data derived using Phoenix WinNonlin 6.4® non-compartmental analysis. Oral bioavailability (% F) was calculated by taking the ratio of dose-normalised AUC values from oral versus parenteral (IV) dosing.

[10] = Pharmacokinetics in rat; type: in vivo, Wistar Rat; details: po; for bioavailability: vs IV dosing, read-out: Oral bioavailability (F %)
Experimental: as §4

[11] = system: MOLM-13; test: Cell viability assay, leukemia MOLM-13; type: cell-based; details: Homo sapiens, 72 h, read-out: Antiproliferative activity GI50 MOLM-13
From the text: as §1

[12] = system: KG-1; test: Cell viability assay, leukemia KG-1; type: cell-based; details: Homo sapiens, 72 h, read-out: Antiproliferative activity GI50 KG-1
From the text: as §1

[13] = system: A2780; test: Cell viability assay, ovarian A2780; type: cell-based; details: Homo sapiens, A2780; 72 h, Ovarian; read-out: Antiproliferative activity GI50 A2780
From the text: as §1

[14] = system: D283; test: Cell viability assay, medulloblastoma D283; type: cell-based; details: Homo sapiens, D283; 72 h, Medulloblastoma; read-out: Antiproliferative activity GI50 D283
From the text: as §1

[15] = system: D458; test: Cell viability assay, medulloblastoma D458; type: cell-based; details: Homo sapiens; 72 h, Medulloblastoma; read-out: Antiproliferative activity GI50 D458
From the text: as §1

[16] = system: MV4-11 cells; test: Cell cycle analysis (PI staining, flow cytometry); type: cell-based, human; details: MV4-11 cells treated for 24 h, FIG. 1
Experimental: Cell cycle analysis and apoptosis studies were performed as described previously (Diab S. et al. CheMedChem 9:962-972, 2014; Teo T., et al. Cancer Letters, 357(2):612-623, 2015). Briefly, human acute myeloid leukaemia MV4-11 cells (1×10^5) were seeded and incubated overnight at 37° C. and 5% CO2. Cells were centrifuged at 300×g for 5 min upon treatment with inhibitor. Cell pellets were collected and fixed with 70% ethanol on ice for 15 min, followed by centrifugation at 300×g for 5 min. The collected pellets were incubated with staining solution (50 μg/mL PI, 0.1 mg/mL ribonuclease A, 0.05% Triton X-100) at 37° C. for an hour and analysed with Gallios flow cytometer. 1×10^5 of the remaining cells were then used in an apoptotic assay with Annexin V-FITC Apoptosis Detection Kit. The samples were analysed by FACS within one hour of staining. Data were analysed using Kaluza v1.2.
In an example shown in FIG. 1, MV4-11 cells were treated with compound 60 for 24 hat the concentrations shown.

[17] = male, Wistar, plasma, 20 mg/kg in rat
[18] = male, Wistar, plasma, 40 mg/kg in rat

| Compound | GI50 [1] | Ki [2] | Ki [4] | Ki [7] | GI50 [8] | Ki [3] | Ki [5] | Ki [6] | GI50 [11] | GI50 [12] | also measured |
| --- | --- | --- | --- | --- | --- | --- | --- | --- | --- | --- | --- |
| Cc1[nH]c(=O)sc1-c1ccnc(Nc2ccc(N3CCN(C)CC3)cn2)n1 [Compound 92, 4-methyl-5-(2-((5-(4-methylpiperazin-1-yl)pyridin-2-yl)amino)pyrimidin-4-yl)thiazol-2(3H)-one] | 3330 ± 864 nM | 0.95 µM | 155 nM | 27 nM | 752 ± 33 nM | – | – | – | – | – | remaining activity at 10 µM ([3]; compound at 10 μM, read-out: % remaining enzymatic activity at 10 μM CDK1B): 51%; remaining activity at 10 µM ([5]; compound at 10 μM, read-out: % remaining enzymatic activity at 10 μM CDK 2A): 61%; remaining activity at 10 µM ([6]; compound at 10 μM, read-out: % remaining enzymatic activity at 10 μM CDK7H): 24%; melting point: 228 to 230 °C |
| Cc1nc(NC2CCCC2)sc1-c1ccnc(Nc2ccc(N3CCOCC3)cn2)n1 [Compound 71, N-cyclopentyl-4-methyl-5-(2-((5-morpholinopyridin-2-yl)amino)pyrimidin-4-yl)thiazol-2-amine] | 3680 ± 285 nM | > 5 µM | 29 nM | 5 nM | 335 ± 184 nM | > 5 µM | 2940 nM | > 5 µM | – | – | AUC ([9]; male, Balb/C, mouse, plasma): 5.9 µM·h; half-life ([9]; male, Balb/C, mouse, plasma): 300 min; bioavailability ([9]; male, Balb/C, mouse, plasma, vs IV dosing, read-out: Oral bioavailability (F %)): 100%; Cmax [9]: 1600 nM; AUC [10, 17]: 15.9 µM·h; bioavailability [10, 17]: 27%; Cmax ([10]; 20 mg/kg in rat): 1400 nM; t1/2 ([10]; 20 mg/kg in rat): 2.8 h |
| CCc1nc(C)c(-c2ccnc(Nc3ccc(N4CCN(CC)CC4)cn3)n2)s1 [Compound 9, 4-(2-ethyl-4-methylthiazol-5-yl)-N-(5-(4-ethylpiperazin-1-yl)pyridin-2-yl)pyrimidin-2-amine] | 3320 ± 576 nM | > 5 µM | 1670 nM | 10 nM | 591 ± 83 nM | > 5 µM | 1800 nM | > 5 µM | 293 ± 28 nM | 47 ± 15 nM | – |
| Cc1nc(N(C)C)sc1-c1nc(Nc2ccc(N3CCN(C)CC3)cn2)ncc1F [Compound 46, 5-(5-fluoro-2-((5-(4-methylpiperazin-1-yl)pyridin-2-yl)amino)pyrimidin-4-yl)-N,N,4-trimethylthiazol-2-amine] | 638 ± 42 nM | 4.36 µM | 55 nM | 2 nM | 73 ± 10 nM | > 5 µM | 1390 nM | > 5 µM | 98 ± 12 nM | 5 ± 4 nM | – |
| CNc1nc(C)c(-c2nc(Nc3ccc(N4CCC(N(C)C)CC4)cn3)ncc2F)s1 [Compound 47, 5-(2-((5-(4-(dimethylamino)piperidin-1-yl)pyridin-2-yl)amino)-5-fluoropyrimidin-4-yl)-N,4-dimethylthiazol-2-amine] | 349 ± 36 nM | > 5 µM | 279 nM | 2 nM | 107 ± 22 nM | > 5 µM | 3340 nM | > 5 µM | 76 ± 8 nM | 6 ± 1 nM | – |
| CNc1nc(C)c(-c2nc(Nc3ccc(N4CCN(C(C)=O)CC4)cn3)ncc2C#N)s1 [Compound 34, 2-((5-(4-acetylpiperazin-1-yl)pyridin-2-yl)amino)-4-(4-methyl-2-(methylamino)thiazol-5-yl)pyrimidine-5-carbonitrile] | 813 ± 22 nM | > 5 µM | – | – | 174 ± 22 nM | > 5 µM | 4470 nM | > 5 µM | 408 ± 25 nM | 112 ± 45 nM | AUC [10, 17]: 10.2 µM·h; Cmax [10, 17]: 600 nM; half-life [10, 17]: 276 min; bioavailability [10, 17]: 39% |
| Cc1nc(N(C)C2CCCC2)sc1-c1ccnc(Nc2ccc(N3CCN(C)CC3)cn2)n1 [Compound 86, N-cyclopentyl-N,4-dimethyl-5-(2-((5-(4-methylpiperazin-1-yl)pyridin-2-yl)amino)pyrimidin-4-yl)thiazol-2-amine] | 3360 ± 286 nM | 1.8 µM | 10 nM | 2 nM | 20 ± 15 nM | > 5 µM | 476 nM | > 5 µM | – | – | GI50 [13]: 72 ± 20 nM; GI50 [14]: 358 ± 100 nM; GI50 [15]: 617 ± 112 nM |
| Cc1nc(NC2CCCC2)sc1-c1ccnc(Nc2ccc(N3CCNCC3)cn2)n1 [Compound 60, N-cyclopentyl-4-methyl-5-(2-((5-(piperazin-1-yl)pyridin-2-yl)amino)pyrimidin-4-yl)thiazol-2-amine] | 70 ± 13 nM | – | – | – | 23 ± 24 nM | > 5 µM | > 5000 nM | – | – | – | GI50 [13]: 81 ± 1 nM; Cell cycle effect [16]: arrested cells in the G1 phase of the cell-cycle in a dose-dependent manner; AUC [10, 18]: 6.6 µM·h; Cmax [10, 18]: 500 nM; half-life [10, 18]: 984 min; bioavailability [10, 18]: 51%; GI50 [14]: 124 ± 20 nM; GI50 [15]: 321 ± 68 nM |
